# In patent publication US5340800A, “Peptide medicaments for the treatment of disease” (priority 1992, dated 1994):
# Like-named read-outs stand apart in the source and are kept apart here. No end group written: not given here.
# How the values were obtained:
# [1] = tested on: polymorphonuclear leukocyte adhesion to endothelial cells activated with IL1; assay type: cell-based, human
# [2] = tested on: polymorphonuclear leukocyte migration; assay: Chemotaxis of polymorphonuclear leukocytes (trans-well, zymosan-activated human serum); assay type: cell-based; conditions: for % Inhibition of Migration (neutrophil chemotaxis): 0.5% zymosan-activated human serum
# Protocol: The materials and methods for ascertaining the chemotactic inhibitory properties of peptides are generally known in the art, and the preferred procedure is described by Capsoni, et al., 1989, J. of Immunol. Meth., 120:125. Generally, chemotaxis is determined by positioning the leukocytes and a chemotactic substance on opposite sides of a membrane in appropriate culture media. The preferred apparatus for doing a chemotaxis assay is produced by Costar Corporation, Cambridge, Mass., and is termed the trans-well cell culture apparatus. […] If a substance is being tested for inhibitory activity this can be achieved by combining it with the leukocytes or the chemotactic substance.
# The procedure of Capsoni, et al., above, was followed with the following modifications. Leukocytes may be isolated and labelled with ^111 Indium as described for the adhesion assay, above. The cells are resuspended after labelling in an appropriate cell culture medium at about 5×10^6 cells/ml. Next, a desired amount of the cell suspension is mixed with a predetermined amount of the peptide(s) to be tested for inhibitory activity, and the mixture added to an appropriate filter device. Three μm-pore membranes are situated in the wells of a 24 trans-well tissue culture plate. The cell/inhibitory peptide mixture is incubated for a short time at 37° C. to acclimate the cells to the membrane surface, and to provide sufficient time for them to settle onto the membrane surface. Next, inserts are set in wells containing cell culture media. The media contains zymosan-activated human serum at about 0.5%. Zymosan activation generates complement-derived chemotactic factors which attract the leukocytes through the pores of the membrane. This media was also prewarmed for an appropriate time prior to addition to the cell culture wells. After a 30 minute incubation period at 37° C., the number of leukocytes that have migrated through the membrane filter, in the presence or absence of CD18 peptides, is readily determined by counting the amount of ^111 Indium present in the media. This may be facilitated by adding an appropriate detergent at an appropriate concentration to the media in the wells prior to removing an aliquot for counting. In this way, the inhibitory activities of the peptide being tested could be determined.
# Many of the materials and methods used to test the inhibitory activity of the CD18 peptides on the chemotactic response of the polymorphonuclear leukocytes are similar or identical to those used to perform the adhesion assays described in Example 1. Polymorphonuclear leukocytes were isolated and labelled with ^111 Indium as described before, and the cells were suspended in RPMI 1640 culture medium at a concentration of 5×10^6 /ml. Next, 75 μl of the cell suspension and 25 μl of media containing a desired concentration of a CD18 peptide were added to trans-well inserts, and the mixture was incubated at 37° C. for 10 minutes.
# To the bottom wells of the 24-well plate 0.6 ml of media containing 0.5% zymosan-activated human serum was added. This solution was also warmed to 37° C. for 10 minutes prior to use.
# Next, the assay was conducted by incubating the trans-well inserts containing the cell suspension with the desired CD18 peptide in the 24-well plates at 37° C. for 30 minutes. Subsequently, the inserts were removed, and 60 μl of a 10% sodium dodecyl sulphate solution was added to the wells of the 24-well plate. The plates were incubated with gentle shaking at room temperature for 15 minutes, and 110 μl aliquots were removed and the amount of ^111 Indium determined using a gamma-counter.
sequence,measurement,setting,value
"IGWRNVTRLLVFATDDGFHFAGDGKLGAI [Peptide 4-29, NH2 --Ile--Gly--Trp--Arg--Asn--Val--Thr--Arg--Leu--Leu--Val--Phe--Ala--Thr--Asp--Asp--Gly--Phe--His--Phe--Ala--Gly--Asp--Gly--Lys--Leu--Gly--Ala--Ile--COOH]",Percent Change in PMN Adhesion to ECs activated with IL1,"[1]; 10^-7 M, donor 155*, peptide 1 wk 4°",+59%
same,Percent Change in PMN Adhesion to ECs activated with IL1,"[1]; 10^-7 M, donor 272*, peptide 1 wk 4°",+2%
same,Percent Change in PMN Adhesion to ECs activated with IL1,"[1]; 10^-8 M, donor 108*, peptide frozen",+21%
same,Percent Change in PMN Adhesion to ECs activated with IL1,"[1]; 10^-8 M, donor 489*, peptide frozen",-3%
same,concentration of peak activity in chemotaxis inhibition,"[2]; 6 donors, 10^-4 -10^-7",10^-5 M
same,inhibition of chemotaxis migration (in words),[2]; 10^-4 -10^-5 M,marked inhibition
same,% Inhibition of Migration (neutrophil chemotaxis),"[2]; 10^-4 M, donor 140",83%
same,percent inhibition (-) or enhancement of polymorphonuclear leukocyte migration,"[2]; 10^-4 M, donor 195",-93%
same,% Inhibition of Migration (neutrophil chemotaxis),"[2]; 10^-4 M, donor 195",76%
same,% Inhibition of Migration (neutrophil chemotaxis),"[2]; 10^-4 M, donor 279",74%
same,% Inhibition of Migration (neutrophil chemotaxis),"[2]; 10^-4 M, donor 363",76%
same,percent inhibition (-) or enhancement of polymorphonuclear leukocyte migration,"[2]; 10^-4 M, donor 499",-87%
same,percent inhibition (-) or enhancement of polymorphonuclear leukocyte migration,"[2]; 10^-4 M, donor 591",-74%
same,percent inhibition (-) or enhancement of polymorphonuclear leukocyte migration,"[2]; 10^-4 M, donor 593",-88%
same,% Inhibition of Migration (neutrophil chemotaxis),"[2]; 10^-5 M, donor 140",69%
same,% Inhibition of Migration (neutrophil chemotaxis),"[2]; 10^-5 M, donor 169",75%
same,percent inhibition (-) or enhancement of polymorphonuclear leukocyte migration,"[2]; 10^-5 M, donor 195",-93%
same,% Inhibition of Migration (neutrophil chemotaxis),"[2]; 10^-5 M, donor 195",87%
same,% Inhibition of Migration (neutrophil chemotaxis),"[2]; 10^-5 M, donor 279",49%
same,% Inhibition of Migration (neutrophil chemotaxis),"[2]; 10^-5 M, donor 359",74%
same,% Inhibition of Migration (neutrophil chemotaxis),"[2]; 10^-5 M, donor 363",79%
same,percent inhibition (-) or enhancement of polymorphonuclear leukocyte migration,"[2]; 10^-5 M, donor 499",-79%
same,percent inhibition (-) or enhancement of polymorphonuclear leukocyte migration,"[2]; 10^-5 M, donor 591",-88%
same,percent inhibition (-) or enhancement of polymorphonuclear leukocyte migration,"[2]; 10^-5 M, donor 593",-88%
same,% Inhibition of Migration (neutrophil chemotaxis),"[2]; 10^-6 M, donor 140",2%
same,percent inhibition (-) or enhancement of polymorphonuclear leukocyte migration,"[2]; 10^-6 M, donor 195",11%
same,% Inhibition of Migration (neutrophil chemotaxis),"[2]; 10^-6 M, donor 195",34%
same,% Inhibition of Migration (neutrophil chemotaxis),"[2]; 10^-6 M, donor 279",17%
same,% Inhibition of Migration (neutrophil chemotaxis),"[2]; 10^-6 M, donor 363",34%
same,percent inhibition (-) or enhancement of polymorphonuclear leukocyte migration,"[2]; 10^-6 M, donor 499",0%
same,percent inhibition (-) or enhancement of polymorphonuclear leukocyte migration,"[2]; 10^-6 M, donor 591",0%
same,percent inhibition (-) or enhancement of polymorphonuclear leukocyte migration,"[2]; 10^-6 M, donor 593",4%
same,% Inhibition of Migration (neutrophil chemotaxis),"[2]; 10^-7 M, donor 140",0%
same,% Inhibition of Migration (neutrophil chemotaxis),"[2]; 10^-7 M, donor 279",0%
same,inhibitory activity on chemotaxis (in words),[2]; PMNs from 6 donors,significant activity being observed for all donors
